{
  "source": "PubChem BioAssay AID1845196",
  "about": "(Molecular Pharmacology Branch, DTP, NCI, 2023);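 note: spheroids exposed to compounds for 7 days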",
  "tested_on": "292921-168-R tumor spheroid viability",
  "assay": "Anticancer human tumor 292921-168-R patient-derived pancreatic carcinoma cell line growth inhibition",
  "conditions": "spheroids with HUVEC and MSC; for viability, T/C: stronger effect = lower value",
  "in_short": "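Complex tumor spheroids combined malignant cells with endothelial cells and mesenchymal stem cells. DNA-damaging drugs and DNA repair inhibitors were tested alone and in combination, at half-log dilutions down from clinical Cmax (top 10 microM if Cmax unknown), 0.25% DMSO final.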",
  "data": [
    {"smiles": "COc1cc2c(cc1O)CCNC21CSC2c3c(OC(C)=O)c(C)c4c(c3C(COC1=O)N1C(O)C3Cc5cc(C)c(OC)c(O)c5C(C21)N3C)OCO4", "note": "(stereo not given)", "values": [
      {"measurement": "viability, T/C", "setting": "compound 94.9 pM", "value": "101% [middle of 10 runs]"},
      {"measurement": "viability, T/C", "setting": "compound 0.0003 µM", "value": "41.8% [middle of 10 runs]"},
      {"measurement": "viability, T/C", "setting": "compound 0.000949 µM", "value": "3.57% [middle of 10 runs]"},
      {"measurement": "viability, T/C", "setting": "compound 0.003 µM", "value": "0.16% [middle of 5 runs]"},
      {"measurement": "IC50", "setting": "compound alone, run of 10/25/2019", "value": "0.259 nM [middle of 10 runs]"}
    ]},
    {"smiles": "COc1cc(C)[nH]c(=O)c1CN1CCc2c(Cl)cc(C(OC)C3COC3)c(Cl)c2C1=O", "note": "(stereo not given) + COc1cc2c(cc1O)CCNC21CSC2c3c(OC(C)=O)c(C)c4c(c3C(COC1=O)N1C(O)C3Cc5cc(C)c(OC)c(O)c5C(C21)N3C)OCO4", "values": [
      {"measurement": "IC50", "setting": "curve of first compound, second compound 30 pM", "value": "> 10", "unit": "µM"},
      {"measurement": "IC50", "setting": "curve of first compound, second compound 94.9 pM", "value": "> 10", "unit": "µM"},
      {"measurement": "IC50", "setting": "curve of first compound, second compound 0.0003 µM", "value": 3.68, "unit": "µM"},
      {"measurement": "IC50", "setting": "curve of first compound, second compound 0.000949 µM", "value": "< 0.0316", "unit": "µM"},
      {"measurement": "IC50", "setting": "curve of first compound, second compound 0.003 µM", "value": "< 0.0316", "unit": "µM"},
      {"measurement": "viability, T/C", "setting": "second compound 30 pM, first compound 0.0316 µM", "value": 117, "unit": "%"},
      {"measurement": "viability, T/C", "setting": "second compound 30 pM, first compound 0.1 µM", "value": 116, "unit": "%"},
      {"measurement": "viability, T/C", "setting": "second compound 30 pM, first compound 0.316 µM", "value": 110, "unit": "%"},
      {"measurement": "viability, T/C", "setting": "second compound 30 pM, first compound 1 µM", "value": 114, "unit": "%"},
      {"measurement": "viability, T/C", "setting": "second compound 30 pM, first compound 3.16 µM", "value": 110, "unit": "%"},
      {"measurement": "viability, T/C", "setting": "second compound 30 pM, first compound 10 µM", "value": 92.4, "unit": "%"},
      {"measurement": "viability, T/C", "setting": "second compound 94.9 pM, first compound 0.0316 µM", "value": 117, "unit": "%"},
      {"measurement": "viability, T/C", "setting": "second compound 94.9 pM, first compound 0.1 µM", "value": 101, "unit": "%"},
      {"measurement": "viability, T/C", "setting": "second compound 94.9 pM, first compound 0.316 µM", "value": 117, "unit": "%"},
      {"measurement": "viability, T/C", "setting": "second compound 94.9 pM, first compound 1 µM", "value": 112, "unit": "%"},
      {"measurement": "viability, T/C", "setting": "second compound 94.9 pM, first compound 3.16 µM", "value": 94.8, "unit": "%"},
      {"measurement": "viability, T/C", "setting": "second compound 94.9 pM, first compound 10 µM", "value": 97.3, "unit": "%"},
      {"measurement": "viability, T/C", "setting": "second compound 0.0003 µM, first compound 0.0316 µM", "value": 49.4, "unit": "%"},
      {"measurement": "viability, T/C", "setting": "second compound 0.0003 µM, first compound 0.1 µM", "value": 53.3, "unit": "%"},
      {"measurement": "viability, T/C", "setting": "second compound 0.0003 µM, first compound 0.316 µM", "value": 54.1, "unit": "%"},
      {"measurement": "viability, T/C", "setting": "second compound 0.0003 µM, first compound 1 µM", "value": 58.3, "unit": "%"},
      {"measurement": "viability, T/C", "setting": "second compound 0.0003 µM, first compound 3.16 µM", "value": 51.2, "unit": "%"},
      {"measurement": "viability, T/C", "setting": "second compound 0.0003 µM, first compound 10 µM", "value": 36.5, "unit": "%"},
      {"measurement": "viability, T/C", "setting": "second compound 0.000949 µM, first compound 0.0316 µM", "value": 6.67, "unit": "%"},
      {"measurement": "viability, T/C", "setting": "second compound 0.000949 µM, first compound 0.1 µM", "value": 3.7, "unit": "%"},
      {"measurement": "viability, T/C", "setting": "second compound 0.000949 µM, first compound 0.316 µM", "value": 4.01, "unit": "%"},
      {"measurement": "viability, T/C", "setting": "second compound 0.000949 µM, first compound 1 µM", "value": 3.27, "unit": "%"},
      {"measurement": "viability, T/C", "setting": "second compound 0.000949 µM, first compound 3.16 µM", "value": 2.1, "unit": "%"},
      {"measurement": "viability, T/C", "setting": "second compound 0.000949 µM, first compound 10 µM", "value": 1.64, "unit": "%"},
      {"measurement": "viability, T/C", "setting": "second compound 0.003 µM, first compound 0.0316 µM", "value": 0.15, "unit": "%"},
      {"measurement": "viability, T/C", "setting": "second compound 0.003 µM, first compound 0.1 µM", "value": 0.14, "unit": "%"},
      {"measurement": "viability, T/C", "setting": "second compound 0.003 µM, first compound 0.316 µM", "value": 0.13, "unit": "%"},
      {"measurement": "viability, T/C", "setting": "second compound 0.003 µM, first compound 1 µM", "value": 0.14, "unit": "%"},
      {"measurement": "viability, T/C", "setting": "second compound 0.003 µM, first compound 3.16 µM", "value": 0.2, "unit": "%"},
      {"measurement": "viability, T/C", "setting": "second compound 0.003 µM, first compound 10 µM", "value": 0.26, "unit": "%"}
    ]},
    {"smiles": "CC(C)n1c(=O)n(C)c2cnc3cc(F)c(-c4ccc(OCCCN5CCCCC5)nc4)cc3c21", "note": "+ Cn1nnc2c(C(N)=O)ncn2c1=O", "values": [
      {"measurement": "IC50", "setting": "curve of first compound, second compound 1 µM", "value": 4.66, "unit": "µM"},
      {"measurement": "IC50", "setting": "curve of first compound, second compound 3.16 µM", "value": 5.43, "unit": "µM"},
      {"measurement": "IC50", "setting": "curve of first compound, second compound 10 µM", "value": 5.38, "unit": "µM"},
      {"measurement": "IC50", "setting": "curve of first compound, second compound 31.6 µM", "value": 4.64, "unit": "µM"},
      {"measurement": "IC50", "setting": "curve of first compound, second compound 100 µM", "value": 4.29, "unit": "µM"},
      {"measurement": "viability, T/C", "setting": "second compound 1 µM, first compound 0.0316 µM", "value": 96.5, "unit": "%"},
      {"measurement": "viability, T/C", "setting": "second compound 1 µM, first compound 0.1 µM", "value": 94.2, "unit": "%"},
      {"measurement": "viability, T/C", "setting": "second compound 1 µM, first compound 0.316 µM", "value": 89.6, "unit": "%"},
      {"measurement": "viability, T/C", "setting": "second compound 1 µM, first compound 1 µM", "value": 79.6, "unit": "%"},
      {"measurement": "viability, T/C", "setting": "second compound 1 µM, first compound 3.16 µM", "value": 63.3, "unit": "%"},
      {"measurement": "viability, T/C", "setting": "second compound 1 µM, first compound 10 µM", "value": 26, "unit": "%"},
      {"measurement": "viability, T/C", "setting": "second compound 3.16 µM, first compound 0.0316 µM", "value": 99.2, "unit": "%"},
      {"measurement": "viability, T/C", "setting": "second compound 3.16 µM, first compound 0.1 µM", "value": 94.8, "unit": "%"},
      {"measurement": "viability, T/C", "setting": "second compound 3.16 µM, first compound 0.316 µM", "value": 85.6, "unit": "%"},
      {"measurement": "viability, T/C", "setting": "second compound 3.16 µM, first compound 1 µM", "value": 86.8, "unit": "%"},
      {"measurement": "viability, T/C", "setting": "second compound 3.16 µM, first compound 3.16 µM", "value": 73.8, "unit": "%"},
      {"measurement": "viability, T/C", "setting": "second compound 3.16 µM, first compound 10 µM", "value": 25.1, "unit": "%"},
      {"measurement": "viability, T/C", "setting": "second compound 10 µM, first compound 0.0316 µM", "value": 90.4, "unit": "%"},
      {"measurement": "viability, T/C", "setting": "second compound 10 µM, first compound 0.1 µM", "value": 96.2, "unit": "%"},
      {"measurement": "viability, T/C", "setting": "second compound 10 µM, first compound 0.316 µM", "value": 89.5, "unit": "%"},
      {"measurement": "viability, T/C", "setting": "second compound 10 µM, first compound 1 µM", "value": 84.2, "unit": "%"},
      {"measurement": "viability, T/C", "setting": "second compound 10 µM, first compound 3.16 µM", "value": 69.8, "unit": "%"},
      {"measurement": "viability, T/C", "setting": "second compound 10 µM, first compound 10 µM", "value": 27.4, "unit": "%"},
      {"measurement": "viability, T/C", "setting": "second compound 31.6 µM, first compound 0.0316 µM", "value": 89.9, "unit": "%"},
      {"measurement": "viability, T/C", "setting": "second compound 31.6 µM, first compound 0.1 µM", "value": 91.2, "unit": "%"},
      {"measurement": "viability, T/C", "setting": "second compound 31.6 µM, first compound 0.316 µM", "value": 83.6, "unit": "%"},
      {"measurement": "viability, T/C", "setting": "second compound 31.6 µM, first compound 1 µM", "value": 77.9, "unit": "%"},
      {"measurement": "viability, T/C", "setting": "second compound 31.6 µM, first compound 3.16 µM", "value": 62.8, "unit": "%"},
      {"measurement": "viability, T/C", "setting": "second compound 31.6 µM, first compound 10 µM", "value": 25.9, "unit": "%"},
      {"measurement": "viability, T/C", "setting": "second compound 100 µM, first compound 0.0316 µM", "value": 72.2, "unit": "%"},
      {"measurement": "viability, T/C", "setting": "second compound 100 µM, first compound 0.1 µM", "value": 74.1, "unit": "%"},
      {"measurement": "viability, T/C", "setting": "second compound 100 µM, first compound 0.316 µM", "value": 79.6, "unit": "%"},
      {"measurement": "viability, T/C", "setting": "second compound 100 µM, first compound 1 µM", "value": 77.2, "unit": "%"},
      {"measurement": "viability, T/C", "setting": "second compound 100 µM, first compound 3.16 µM", "value": 57.9, "unit": "%"},
      {"measurement": "viability, T/C", "setting": "second compound 100 µM, first compound 10 µM", "value": 28.1, "unit": "%"}
    ]}
  ]
}
